Data as given in a melting point compilation (Tetko et al.; mined from patent text by program, amines drawn as free bases though some values may be those of a salt).

Row | SMILES | melting point [°C]
1 | CNC(=O)c1ccccc1CC(O)(CCN(C)C)c1ccccc1 (stereo unspecified) | 140
2 | Cn1cc2c3c(c(F)cc2n1)CCC3=O | 190 to 192
3 | CSc1nc2cccc3c2n1CC(N(C)C)C3 (stereo unspecified) | 84 to 86
4 | C=C(C(=O)c1ccc(OCC(=O)O)c(Cl)c1Cl)C(C)(C)C | 160 to 162
5 | FC(F)(F)c1ccc(-c2cc(Oc3ccc4c(C(F)(F)F)ccnc4c3)ncn2)cc1 | 129 to 131
6 | CCn1c(COCc2ccccc2)nc(C(C)C)c1Sc1cccc(Cl)c1 | 99 to 100
7 | COCCN1CCn2c1nc(C(=O)NCc1ccc(F)cc1)c(OCc1ccccc1)c2=O | 150
8 | COc1ccc2c3c([nH]c2c1[N+](=O)[O-])C(O)CC3 (stereo unspecified) | 192
9 | Nc1nc(O)c2cc(CN(Cc3c[nH]c(=O)[nH]c3=O)c3ccc(C(=O)N[C@@H](CCC(=O)O)C(=O)O)cc3)ccc2n1 | 250 to 255
10 | C#CCc1c(C)nc2c(OCc3c(C)cccc3NC(=O)C(C)O)cccn12 (stereo unspecified) | 186 to 188
11 | O=C1NCCn2c1nc1c2CCCC1 | > 250
12 | Cc1nc2n(c(=O)c1CCN1CCC(c3noc4cc(F)ccc34)CC1)CC(O)CC2 (stereo unspecified) | 156
13 | O=c1[nH]c2cscc2c(=O)n1CCN1CCN(c2cccc(Cl)c2)CC1 | 207 to 208
14 | CC1Cc2cccc3c4oc(=O)c(Br)c(O)c4c(=O)n1c23 (stereo unspecified) | 221 to 222
15 | CC(C)(C)OC(=O)N1C[C@@H](F)C[C@H]1C(=O)O | 158 to 159
16 | CC1Oc2c(Cc3ccccc3)cc(C=O)cc2NC1=O (stereo unspecified) | 163 to 166
17 | Cc1ccc2ccc(N3C(=O)c4cccnc4C3OC(=O)N3CCN(C)CC3)nc2n1 (stereo unspecified) | 226
18 | COCc1cnc2c(NC(=O)c3c(Cl)cccc3Cl)cccc2c1COC | 160 to 161
19 | NCc1cc2c(Oc3ccc(Cl)cc3)cncc2s1 | 78.6 to 79.8
20 | CC1(O)CC(=O)OC(CCc2ccc(OCc3ccc(F)cc3)cc2)C1 (stereo unspecified) | 144
21 | O=c1ccc2nc3ccc(F)cc3sc-2c1Cl | 250 to 255
22 | CCCCCCCCCCCCCCOCC(COCCCCCCCCCCCCCC)(CC(=O)N(C)C)CC(=O)N(C)C | 52 to 54
23 | CCCCNC(=O)NS(=O)(=O)c1c(C(=O)OCC)c(Cl)nn1C | 109 to 111
24 | CC(COc1ccccc1)NCC(O)COc1cccc(O)c1 (stereo unspecified) | 124 to 127
25 | O=S(=O)(NCCc1ccc(CN2CCCCC2)cc1)c1ccc(Br)cc1 | 109 to 110
26 | Cc1nc(-c2ccccc2)cc(-c2cccc([N+](=O)[O-])c2)c1NC(=O)NCCN(C)C | 159 to 161

Row | SMILES | melting point [°C]
27 | Oc1cc(-c2ccc(Cl)cc2)nc2ccnn12 | 306 to 308
28 | COC(=O)C1=C(C)NC(C)=C(C(=O)OCCc2ccc(OCC(O)CO)cc2)C1c1cccc([N+](=O)[O-])c1 (stereo unspecified) | 117 to 118
29 | Cc1cccc(-c2nccc3nc(N)nn23)c1 | 125 to 126
30 | COc1cc2c(cc1Br)-c1c(Br)c3c(n1CC2)C(=O)N(C(C)(C)C)CCC3 | 218 to 220
31 | COP(=O)(OC)C(O)=Cc1ccc(C)cc1 | 100 to 102
32 | COC(=O)c1nc(-c2ccccc2)n2c1CN=C(c1ccccc1Cl)c1cc(Cl)ccc1-2 | 272 to 275
33 | C=C(C)c1c(OCC)cc(Cc2cnc(N)nc2N)cc1OCC | 196 to 198
34 | CCCCOc1cccc(CCNC(=O)C(Br)=Cc2ccccc2)c1 | 38 to 39
35 | CN1CCN(c2cccc3ccc(OCc4cccc(Cl)c4)cc23)CC1 | 67.5 to 68
36 | CC(C)n1nc(-c2c(-c3ccccc3)nn3cccc(OCCN(C)C)c23)ccc1=O | 137 to 138
37 | CCCCN1CCN2c3ccc(C)cc3C(c3ccco3)=[N+]([O-])CC2C1 (stereo unspecified) | 104 to 106
38 | COc1ccccc1-c1nc(CC(=O)O)cs1 | 104 to 105
39 | C=CCOCCCCOc1ccc2c(c1)Cc1cc(C(C)=O)ccc1-2 | 77
40 | CCC(=O)C(O)(Cc1ccc(Cl)cc1Cl)c1cccnc1 (stereo unspecified) | 145 to 146
41 | Cc1cc(OC2SCC(O)C(O)C2O)cc(C)c1-c1ccncc1 (stereo unspecified) | 106 to 107
42 | O=[N+]([O-])c1nn(-c2c(Cl)cc(C(F)(F)F)cc2Cl)cc1S(=O)C(F)(F)F (stereo unspecified) | 124 to 130
43 | Cc1cccc(-c2[nH]c(C(C)C)nc2-c2cccc(-c3ccc(F)cc3)c2)n1 | 83 to 85
44 | Cc1ccc(N2N=C3c4cc(C)sc4CCCC3CC2=O)cc1 (stereo unspecified) | 117 to 119
45 | CCOC(=NC(=O)Nc1ccc(OC(F)(F)F)cc1)c1ccccc1F | 93 to 95
46 | CCc1ccc2c(c1)C=Cc1cc(C)ccc1C2c1cn(-c2ccnc(NCC(=O)Nc3nnn[nH]3)n2)c(=O)[nH]c1=O (stereo unspecified) | 220 to 225
47 | COc1ccc(S(=O)(=O)C2(C(=O)O)CCN(CCOc3ccccc3)CC2)cc1 | 235
48 | Clc1nc(Cl)c2ncn(C3CCCCC3)c2n1 | 116 to 121
49 | CC(=O)NCc1ccc2c(c1)N(C1CCN(CCc3ccccc3F)CC1)CC2 | 160 to 161
50 | Cn1cc(C(=O)CCC(=O)O)nc1-c1ccccc1 | 191 to 192
51 | Cc1cccc(C2CCCN2S(=O)(=O)c2ccc(F)cc2)c1 (racemic) | 80
